Data published in PubChem BioAssay AID248 (DTP/NCI, 2004).
Values joined by “and” are separate entries in the source; they are usually repeats but may differ in a detail not shown here. Equal entries are not always repeated. Toxic doses and inconclusive results are not listed.

System: L1210 leukemia ip in BDF1 mice, survival T/C
Assay: NCI In Vivo Anticancer Drug Screen. Data for tumor model L1210 Leukemia (intraperitoneal) in B6D2F1 (BDF1) mice
Details: higher = longer survival
Summary of the method: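 Survival endpoint. Drug-treated group vs vehicle group, expressed as T divided by C. Tumor passaged by transplantation.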

[1] = endpoint: mean survival time, dose: 100.0 mg/kg/injection, schedule: Q04DX003 (ip), vehicle: saline with Tween-80
[2] = endpoint: mean survival time, dose: 200.0 mg/kg/injection, schedule: Q04DX003 (ip), vehicle: saline with Tween-80
[3] = endpoint: mean survival time, dose: 400.0 mg/kg/injection, schedule: Q04DX003 (ip), vehicle: saline with Tween-80
[4] = endpoint: mean survival time, dose: 100.0 mg/kg/injection, schedule: Q04DX003 (ip), vehicle: saline
[5] = endpoint: mean survival time, dose: 200.0 mg/kg/injection, schedule: Q04DX003 (ip), vehicle: saline
[6] = endpoint: mean survival time, dose: 50.0 mg/kg/injection, schedule: Q01DX009 (ip), vehicle: saline
[7] = endpoint: mean survival time, dose: 100.0 mg/kg/injection, schedule: Q01DX009 (ip), vehicle: saline
[8] = endpoint: mean survival time, dose: 200.0 mg/kg/injection, schedule: Q01DX009 (ip), vehicle: saline
[9] = endpoint: mean survival time, dose: 100.0 mg/kg/injection, schedule: Q04DX003 (ip), vehicle: Klucel (hydroxypropylcellulose) (HPC)
[10] = endpoint: mean survival time, dose: 100.0 mg/kg/injection, schedule: Q01DX009 (ip), vehicle: Klucel (hydroxypropylcellulose) (HPC)
[11] = endpoint: mean survival time, dose: 200.0 mg/kg/injection, schedule: Q01DX009 (ip), vehicle: Klucel (hydroxypropylcellulose) (HPC)
[12] = endpoint: mean survival time, dose: 400.0 mg/kg/injection, schedule: Q01DX009 (ip), vehicle: Klucel (hydroxypropylcellulose) (HPC)
[13] = endpoint: mean survival time, dose: 100.0 mg/kg/injection, schedule: Q01DX001 (ip), vehicle: carboxymethylcellulose (CMC)
[14] = endpoint: mean survival time, dose: 200.0 mg/kg/injection, schedule: Q01DX001 (ip), vehicle: carboxymethylcellulose (CMC)
[15] = endpoint: mean survival time, dose: 400.0 mg/kg/injection, schedule: Q01DX001 (ip), vehicle: carboxymethylcellulose (CMC)

SMILES: COC(=O)/C(C#N)=C/c1c[nH]c2ccccc12
- T/C (endpoint: mean survival time, dose: 100.0 mg/kg/injection, schedule: Q01DX009 (ip), vehicle: saline with Tween-80): 101 % of control
- T/C [1]: 101 % of control
- T/C (endpoint: mean survival time, dose: 200.0 mg/kg/injection, schedule: Q01DX009 (ip), vehicle: saline with Tween-80): 95 % of control
- T/C [2]: 93 % of control
- T/C (endpoint: mean survival time, dose: 400.0 mg/kg/injection, schedule: Q01DX009 (ip), vehicle: saline with Tween-80): 100 % of control
- T/C [3]: 98 % of control

SMILES: O=c1[nH]nnc2c1ncn2C1OC(CO)C(O)C1O (centres undefined)
- T/C (endpoint: mean survival time, dose: 100.0 mg/kg/injection, schedule: Q01DX005 (ip), vehicle: saline): 102 % of control
- T/C (endpoint: mean survival time, dose: 200.0 mg/kg/injection, schedule: Q01DX005 (ip), vehicle: saline): 102 % of control

SMILES: CCn1nnc2c(=O)[nH]c(N)nc21
- T/C [1]: 105 % of control
- T/C [2]: 104 % of control
- T/C [3]: 94 % of control

SMILES: CC1CC(=O)NC1=O (centres undefined)
- T/C [4]: 115 % of control
- T/C [5]: 116 % of control
- T/C (endpoint: mean survival time, dose: 400.0 mg/kg/injection, schedule: Q04DX003 (ip), vehicle: saline): 112 % of control

SMILES: NNC(=O)[C@H]1CC[C@H]1C(=O)NN
- T/C [6]: 102 % of control
- T/C [7]: 109 % of control
- T/C [4]: 103 % of control
- T/C (endpoint: mean survival time, dose: 130.0 mg/kg/injection, schedule: Q01DX009 (ip), vehicle: saline): 106 % of control
- T/C [8]: 106 % of control
- T/C [5]: 104 % of control
- T/C (endpoint: mean survival time, dose: 264.0 mg/kg/injection, schedule: Q04DX003 (ip), vehicle: saline): 105 % of control and 118 % of control and 91 % of control

SMILES: CC(C)(C)N1CC(C(=O)c2ccccc2)C1c1ccc([N+](=O)[O-])cc1 (centres undefined)
- T/C [9]: 96 % of control
- T/C (endpoint: mean survival time, dose: 200.0 mg/kg/injection, schedule: Q04DX003 (ip), vehicle: Klucel (hydroxypropylcellulose) (HPC)): 104 % of control

SMILES: Oc1ccc(N=Cc2ccccc2O)cc1
- T/C (endpoint: mean survival time, dose: 100.0 mg/kg/injection, schedule: Q01DX001 (ip), vehicle: saline): 90 % of control
- T/C (endpoint: mean survival time, dose: 116.0 mg/kg/injection, schedule: Q01DX015 (ip), vehicle: steriod suspending solution): 108 % of control
- T/C (endpoint: mean survival time, dose: 175.0 mg/kg/injection, schedule: Q01DX015 (ip), vehicle: steriod suspending solution): 123 % of control
- T/C (endpoint: mean survival time, dose: 178.0 mg/kg/injection, schedule: Q01DX001 (ip), vehicle: steriod suspending solution): 100 % of control
- T/C (endpoint: mean survival time, dose: 200.0 mg/kg/injection, schedule: Q01DX001 (ip), vehicle: saline): 207 % of control
- T/C (endpoint: mean survival time, dose: 267.0 mg/kg/injection, schedule: Q01DX001 (ip), vehicle: steriod suspending solution): 103 % of control
- T/C (endpoint: mean survival time, dose: 270.0 mg/kg/injection, schedule: Q01DX Z (ip), vehicle: carboxymethylcellulose (CMC)): 104 % of control
- T/C (endpoint: mean survival time, dose: 400.0 mg/kg/injection, schedule: Q01DX001 (ip), vehicle: saline): 260 % of control
- T/C (endpoint: mean survival time, dose: 400.0 mg/kg/injection, schedule: Q01DX001 (ip), vehicle: steriod suspending solution): 101 % of control
- T/C (endpoint: mean survival time, dose: 400.0 mg/kg/injection, schedule: Q01DX Z (ip), vehicle: carboxymethylcellulose (CMC)): 115 % of control
- T/C (endpoint: mean survival time, dose: 600.0 mg/kg/injection, schedule: Q01DX001 (ip), vehicle: steriod suspending solution): 105 % of control

SMILES: CN(Cc1ccccc1)C(=O)c1cccc([N+](=O)[O-])c1
- T/C [10]: 98 % of control
- T/C [11]: 100 % of control
- T/C [12]: 95 % of control

SMILES: O=C(ON=C(c1ccc(Cl)cc1)c1ccc(Cl)cc1)c1ccc(Cl)cc1
- T/C (endpoint: median survival time, dose: 300.0 mg/kg/injection, schedule: Q01DX009 (ip), vehicle: Klucel (hydroxypropylcellulose) (HPC)): 157 % of control
- T/C (endpoint: median survival time, dose: 500.0 mg/kg/injection, schedule: Q01DX009 (ip), vehicle: Klucel (hydroxypropylcellulose) (HPC)): 88 % of control
- T/C (endpoint: median survival time, dose: 833.0 mg/kg/injection, schedule: Q01DX009 (ip), vehicle: Klucel (hydroxypropylcellulose) (HPC)): 74 % of control

SMILES: NC(CCl)=NCC1CCCC1
- T/C (endpoint: mean survival time, dose: 12.5 mg/kg/injection, schedule: Q04DX002 (ip), vehicle: Klucel (hydroxypropylcellulose) (HPC)): 96 % of control
- T/C (endpoint: mean survival time, dose: 25.0 mg/kg/injection, schedule: Q04DX002 (ip), vehicle: Klucel (hydroxypropylcellulose) (HPC)): 96 % of control
- T/C (endpoint: mean survival time, dose: 50.0 mg/kg/injection, schedule: Q04DX002 (ip), vehicle: Klucel (hydroxypropylcellulose) (HPC)): 96 % of control

SMILES: O=C1/C(=C\c2ccccn2)c2ccccc2N1Cl
- T/C (endpoint: mean survival time, dose: 100.0 mg/kg/injection, schedule: Q01DX001 (ip), vehicle: other): 94 % of control
- T/C (endpoint: mean survival time, dose: 200.0 mg/kg/injection, schedule: Q01DX001 (ip), vehicle: other): 92 % of control
- T/C (endpoint: mean survival time, dose: 400.0 mg/kg/injection, schedule: Q01DX001 (ip), vehicle: other): 94 % of control

SMILES: Cc1cc(Cl)sc1Cl
- T/C [13]: 98 % of control
- T/C [14]: 93 % of control
- T/C [15]: 92 % of control

SMILES: CCOC(=O)CCCc1ccc(N=NN(C)CC(C)C)cc1
- T/C [13]: 107 % of control
- T/C (endpoint: mean survival time, dose: 100.0 mg/kg/injection, schedule: Q01DX009 (ip), vehicle: carboxymethylcellulose (CMC)): 116 % of control
- T/C [14]: 102 % of control
- T/C (endpoint: mean survival time, dose: 200.0 mg/kg/injection, schedule: Q01DX009 (ip), vehicle: carboxymethylcellulose (CMC)): 107 % of control
- T/C [15]: 113 % of control

SMILES: O=C(NCCCCC(NC(=O)c1ccccc1)C(=O)NCCCCCCCCCCNC(=O)C(CCCCNC(=O)c1ccccc1)NC(=O)c1ccccc1)c1ccccc1 (centres undefined)
- T/C (endpoint: mean survival time, dose: 10.0 mg/kg/injection, schedule: Q01DX Z (ip), vehicle: saline): 100 % of control
- T/C (endpoint: mean survival time, dose: 30.0 mg/kg/injection, schedule: Q01DX Z (ip), vehicle: saline): 90 % of control

SMILES: COC(=O)c1cccc(C(=O)CC(=O)c2ccccc2)c1
- T/C [10]: 90 % of control
- T/C [11]: 95 % of control
- T/C [12]: 88 % of control

SMILES: CC(=O)OCc1ccc(Cl)cc1Cl
- T/C [1]: 97 % of control
- T/C [2]: 97 % of control
- T/C [3]: 101 % of control

SMILES: CN1CCN(CCNC(c2ccccc2)C(O)c2ccccc2)CC1 (centres undefined)
- T/C [9]: 97 % of control

SMILES: C=CCOC(=O)Nc1ccc(S(=O)(=O)CC)cc1
- T/C [13]: 94 % of control
- T/C [14]: 102 % of control
- T/C [15]: 91 % of control

SMILES: COC(=O)C1OC1c1ccc2c(c1)OCO2 (centres undefined)
- T/C (endpoint: mean survival time, dose: 88.8 mg/kg/injection, schedule: Q01DX001 (ip), vehicle: carboxymethylcellulose (CMC)): 97 % of control and 98 % of control
- T/C (endpoint: mean survival time, dose: 133.4 mg/kg/injection, schedule: Q01DX001 (ip), vehicle: carboxymethylcellulose (CMC)): 95 % of control and 106 % of control
- T/C [14]: 95 % of control and 97 % of control
- T/C (endpoint: mean survival time, dose: 300.0 mg/kg/injection, schedule: Q01DX001 (ip), vehicle: carboxymethylcellulose (CMC)): 93 % of control and 101 % of control

SMILES: CC(C)C(N)C(=O)NO (centres undefined)
- T/C [6]: 95 % of control
- T/C [7]: 100 % of control
- T/C [8]: 107 % of control
- T/C (endpoint: mean survival time, dose: 400.0 mg/kg/injection, schedule: Q01DX009 (ip), vehicle: saline): 110 % of control

SMILES: Nc1cc(I)c2cccnc2c1O
- T/C (endpoint: mean survival time, dose: 6.25 mg/kg/injection, schedule: Q01DX009 (ip), vehicle: saline): 101 % of control
- T/C (endpoint: mean survival time, dose: 10.0 mg/kg/injection, schedule: Q01DX015 (ip), vehicle: saline): 95 % of control
- T/C (endpoint: mean survival time, dose: 12.5 mg/kg/injection, schedule: Q01DX009 (ip), vehicle: saline): 96 % of control
- T/C (endpoint: mean survival time, dose: 20.0 mg/kg/injection, schedule: Q01DX015 (ip), vehicle: saline): 87 % of control
- T/C (endpoint: mean survival time, dose: 25.0 mg/kg/injection, schedule: Q01DX009 (ip), vehicle: saline): 102 % of control
- T/C [6]: 98 % of control

SMILES: COc1cc(C=NC(C)(C)CO)cc(OC)c1
- T/C (endpoint: mean survival time, dose: 100.0 mg/kg/injection, schedule: Q01DX001 (ip), vehicle: alcohol): 88 % of control
- T/C (endpoint: mean survival time, dose: 100.0 mg/kg/injection, schedule: Q04DX003 (ip), vehicle: alcohol): 95 % of control
- T/C (endpoint: mean survival time, dose: 200.0 mg/kg/injection, schedule: Q01DX001 (ip), vehicle: alcohol): 96 % of control
- T/C (endpoint: mean survival time, dose: 200.0 mg/kg/injection, schedule: Q04DX003 (ip), vehicle: alcohol): 97 % of control
- T/C (endpoint: mean survival time, dose: 400.0 mg/kg/injection, schedule: Q01DX001 (ip), vehicle: alcohol): 96 % of control
- T/C (endpoint: mean survival time, dose: 400.0 mg/kg/injection, schedule: Q04DX003 (ip), vehicle: alcohol): 100 % of control

SMILES: CC(CO)(CO)C1CCCCC1
- T/C (endpoint: mean survival time, dose: 25.0 mg/kg/injection, schedule: Q04DX002 (ip), vehicle: saline with Tween-80): 93 % of control
- T/C (endpoint: mean survival time, dose: 50.0 mg/kg/injection, schedule: Q04DX002 (ip), vehicle: saline with Tween-80): 101 % of control
- T/C (endpoint: mean survival time, dose: 100.0 mg/kg/injection, schedule: Q04DX002 (ip), vehicle: saline with Tween-80): 97 % of control
